# According to patent US7745402B2, “Method of treating pancreatitis” (Lundbeck Inc., priority 2005, dated 2010):
# Tests used:
# CDD-induced pancreatitis = assay: Choline deficient diet (CDD)-induced pancreatitis after hemin pretreatment
# Text: Balb/c mice were housed under pathogen-free conditions and utilized in two established models of pancreatitis. […] For the pancreatitis induced by feeding a choline/methionine-deficient diet (CDD), young female mice (15-19 g) were fasted then fed CDD (Harlan Teklad; Madison Wis.) supplemented with 0.5% DL-ethionine (Sigma; St. Louis, Mo.) or normal chow (control group) for 3 d, then switched to normal diet for 1, 2 or 5 d.
# Animal procedures. Mice were euthanized by CO2 inhalation then pancreata and lungs were rapidly removed, divided into 3-4 pieces, and blood was collected by intracardiac puncture. Individual lung and pancreas fragments were immediately fixed in 10% formalin, embedded in OCT (Miles; Elkhart, Ind.) or snap-frozen in liquid N2 for subsequent protein, enzyme, and RNA analysis. […] Fixed tissues were sectioned then stained using hematoxylin and eosin (performed by Histo-tec Laboratory; Hayward, Calif.).
# HO-1 [1] = assay: HO-1 immunoblot of mouse tissue/cell homogenates after hemin; format: in vivo, mice; settings: for HO-1 induction: hemin 3× during 7 d
# Protocol: (A, B) Total tissue homogenates were obtained from pancreata of caerulein-injected or choline deficient diet (CDD)-fed mice. Two age and sex-matched mice were used for each time point. Homogenates were tested by blotting using antibodies to HO-1 or HO-2. (C) Mice (3 mice/condition) were given hemin by intraperitoneal injection (4× during one week, or 8× during two weeks). Two “control” mice were injected with vehicle alone. Pancreatic homogenates were then obtained and blotted with anti-HO-1/2. (D-F) Mice were injected with saline, hemin, or vehicle (8 mice/group)3×(arrows) followed by feeding with CDD for 3 d then harvesting of the pancreata. HO-1 and HO-2 were analyzed by blotting of pancreatic homogenates (3 mice/group). […] A representative hematoxylin and eosin staining of pancreata from mice that survived CDD feeding is shown (scale bar=50 μM).
# FIG. 8: HO-1 expression and hemin-mediated induction in mouse tissues and cells. Mice were injected 3× during 7d with vehicle or hemin (2 mice/group) followed by harvesting of the indicated organs and cells then preparation of total tissue/cell homogenates. Protein concentrations of the homogenates were measured followed by SDS-PAGE separation (40 μg of protein/lane) then blotting using anti-HO-1 antibodies.
# Hemin, vehicle and antibodies. […]
# (§1) Animal procedures. […] Immunofluorescence staining was performed as described (29) and images were analyzed using confocal microscopy. Total tissue lysates were prepared by homogenization in Laemmli sample buffer and analyzed by SDS-PAGE followed by transfer to membranes for blotting and protein visualization by enhanced chemiluminescence. Trypsin activity was determined using a fluorimetric assay and the substrate Boc-Gln-Ala-Arg-MCA (Peptides International Inc.; Louisville, Ky.), and comparison to a standard curve generated with purified trypsin as described. […] Lung injury after caerulein administration was assessed as previously described, based on neutrophilic infiltration, pulmonary edema, alveolar distension and collapse. […]
# HO-1 [2] = assay: Double-staining of pancreas for HO-1 and cell markers after hemin and CDD; format: in vivo, mice; settings: hemin pretreatment, 3 days of CDD
# Text: Pancreata of mice pretreated with hemin followed by 3 days of CDD feeding were isolated, sectioned, then double-stained using antibodies to HO-1 (a, d and g) and keratin polypeptide 8 (epithelial marker, b), vimentin (mesenchymal marker, e) or MJ7/18 (endothelial marker, h). Merging of the indicated images is shown in the right panels. Scale bar in panel i=20 μm. HO-1 staining of pancreas from mice treated with vehicle alone (without CDD) afforded background staining (inset of panel a).
# as §1, with “procedures. Mice were euthanized by CO2 inhalation then pancreata and lungs were rapidly removed, divided into 3-4 pieces, and blood was collected by intracardiac puncture.” for “procedures.”
# HO-2 = HO-2 immunoblot of mouse tissue homogenates after hemin; format: in vivo, mice; settings: any of the tissues; hemin 3× during 7 d
substance,measurement,setting,value
Hemin,pancreatic injury,CDD-induced pancreatitis; figure title,inhibition of pancreatic injury
same,"pancreas histology (edema, necrosis)","CDD-induced pancreatitis; hematoxylin and eosin, mice that survived CDD feeding","marked pancreas edema (E) and necrosis (N) in the saline (not shown) and vehicle injected mice, as compared with the “hemin” group"
same,survival,"CDD-induced pancreatitis; hemin 3× then CDD 3 d, 8 mice/group, p<0.03 vs controls (saline+vehicle)",survival difference was significant
same,HO-1 induction,"HO-1 [1]; bone marrow, spleen, brain","not in bone marrow, spleen or brain"
same,level of HO-1 induction on excessive dosing,"HO-1 [1]; pancreas, 8× during two weeks vs 4× during one week (FIG. 1C)",excessive dosing decreases the level of HO-1 induction
same,HO-1 induction,"HO-1 [1]; peritoneal cells, liver, pancreas and colon","induction of HO-1 in peritoneal cells, liver, pancreas and colon (most prominent change being in pancreas)"
same,cell type of pancreatic HO-1 induction,HO-1 [2],occurs in non-epithelial cells
same,HO-2 levels,HO-2,did not change
